pKd: −log10 of the molar value. Read-outs that look alike come from different tables or passages of the source. Square brackets hold non-standard residues; d marks the D form. Peptide text beside a SMILES is read from it. Arg(Me2a) = CN(C)C(=N)NCCC[C@H](N)C(=O)O; Arg(Me2s) = CN=C(NC)NCCC[C@H](N)C(=O)O; Arg(Me) = CNC(=N)NCCC[C@H](N)C(=O)O
Tests used:
TDRD3 (aa 520–633) [1] = molecular target: T1, TDRD3 (aa 520–633) (Homo sapiens, UniProt Q9H7E2); experiment: ITC (Isothermal Titration Calorimetry) binding, TDRD3; conditions: 20 mM Tris pH 8.0, 200 mM NaCl, 25°C, one-site binding model, NB = no detectable binding
T1 construct: TDRD3 (aa 520–633); His tag (pET28-MHL) (N); made in house; host or cells: Escherichia coli BL21 (DE3)
Description: Figure 2 Preferential binding of TDRD3 to asymmetrical dimethylated H3R17 peptide over symmetrical dimethylated H3R17 peptide. The ITC measurements were done in 20 mM Tris pH 8.0 and 200 mM NaCl using the same TDRD3 construct as used in Table 1. The measurements were taken at 25°C. Binding isotherms were plotted and analyzed using Origin Software (MicroCal Inc.). The ITC measurements were fit to a one-site binding model. (A) Histone H3R17me2a peptide (TGGKAPRme2aKQLATKA). (B) Histone H3R17me2s peptide (TGGKAPRme2sKQLATKA). (C) PIWIL1_R4me2a peptide (TGRme2aARARA). TEXT PRINTED IN THE PICTURE: (A) H3R17me2a: Kd>1000μM | (B) H3R17me2s: No binding | (C) PIWIL1_R4me2a: Kd>500μM
The protocol for ITC (Isothermal Titration Calorimetry) was carried out as described before. The ITC buffer used in this study is 20 mM Tris pH 8.0 and 200 mM NaCl. The measurements were taken at 25°C. Binding isotherms were plotted and analyzed using Origin Software (MicroCal Inc.). The ITC measurements were fit to a one-site binding model.

SND1 (aa 650–910) [2] = molecular target: T2, SND1 (aa 650–910) (Homo sapiens, UniProt Q7KZF4); experiment: Fluorescence polarization binding assay, SND1 extended Tudor domain; conditions: values without asterisk in Table 1, NB = no detectable binding
T2 construct: SND1 (aa 650–910)
T2 sequence (Q7KZF4 650-910): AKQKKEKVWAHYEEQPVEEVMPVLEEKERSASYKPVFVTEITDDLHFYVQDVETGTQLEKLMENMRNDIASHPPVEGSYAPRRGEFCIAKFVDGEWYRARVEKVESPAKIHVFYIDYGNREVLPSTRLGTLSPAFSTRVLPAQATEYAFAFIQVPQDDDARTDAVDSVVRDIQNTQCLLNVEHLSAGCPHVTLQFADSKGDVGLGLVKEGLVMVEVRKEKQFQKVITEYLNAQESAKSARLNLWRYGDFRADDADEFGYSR
Description: (§1) All the regular and fluorescent peptides used this study were synthesized by Tufts University Core Services (Boston, USA). The fluorescence polarization assay was carried out as described before. The buffer used in the fluorescence polarization assay is 20 mM Tris pH 7.5, 50 mM NaCl, 1 mM DTT and 0.01% Triton X-100. An excitation wavelength of 485 nm and an emission wavelength of 528 nm are used. The data are measured at 25°C and corrected for background by subtracting the free-labeled peptide background. The data were collected by the Synergy 2 (BioTec, USA) fluorescence polarization program and were fit to one-site binding model using Origin 7 (MicroCal, Inc.). The Kd values are the average of three independent measurements.

SPF30 (aa 65–150) = molecular target: T3, SPF30 (aa 65–150) (Homo sapiens, UniProt O75940); experiment: Fluorescence polarization binding assay, SPF30 Tudor domain; conditions: fluorescein-labeled peptide, 20 mM Tris pH 7.5, 50 mM NaCl, 1 mM DTT, 0.01% Triton X-100, 25°C, average of three independent measurements, NB = no detectable binding
T3 construct: SPF30 (aa 65–150); His tag (pET28-MHL) (N); made in house; host or cells: Escherichia coli BL21 (DE3)
T3 sequence (O75940 65-150): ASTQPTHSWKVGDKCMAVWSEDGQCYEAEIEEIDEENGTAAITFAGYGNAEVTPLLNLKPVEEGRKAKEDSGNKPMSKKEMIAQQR
Description: (§2) Figure 1 Fluorescence polarization binding curves of TDRD3 (aa 520–633), SMN (aa 80–170), and SPF30 (aa 65–150) to the PIWIL1-R4 peptides. The buffer used in the fluorescence polarization assay is 20 mM Tris pH 7.5, 50 mM NaCl, 1 mM DTT and 0.01% Triton X-100. The data are measured at 25°C and corrected for background by subtracting the free-labeled peptide background. The Kd values are the average of three independent measurements.
as §1

SMN (aa 80–170) = molecular target: T4, SMN (aa 80–170) (Homo sapiens, UniProt Q16637); experiment: Fluorescence polarization binding assay, SMN Tudor domain; conditions: for pKd: fluorescence polarization, fluorescein-labeled peptide, 20 mM Tris pH 7.5, 50 mM NaCl, 1 mM DTT, 0.01% Triton X-100, 25°C, average of three independent measurements, NB = no detectable binding
T4 construct: SMN (aa 80–170); His tag (pET28-MHL) (N); made in house; host or cells: Escherichia coli BL21 (DE3)
Description: as §2, §1

SND1 (aa 650–910) [3] = molecular target: T2, SND1 (aa 650–910); conditions: values marked * in Table 1; NB = no detectable binding; ref Liu K et al, PNAS, 2010 [20]; cited from earlier work
Excerpt: Table 1 Binding affinities of TDRD3 (aa 520–633), SMN (aa 80–170), and SPF30 (aa 65–150) to different methyl-arginine peptides in comparison with SND1 (aa 650–910). | column: Kd (µM) / SND1 (aa 650–910)

TDRD3 (aa 520–633) [4] = molecular target: T1, TDRD3 (aa 520–633); experiment: Fluorescence polarization binding assay, TDRD3 Tudor domain; conditions: fluorescein-labeled peptide, 20 mM Tris pH 7.5, 50 mM NaCl, 1 mM DTT, 0.01% Triton X-100, 25°C, average of three independent measurements, NB = no detectable binding
Description: TDRD3 contains a Tudor domain at its C-terminus. […] In order to characterize its binding specificity and affinity quantitatively, we performed a series of fluorescence polarization (FP) binding assays using our fluorescein-labeled peptide library, which includes GAR motif-containing SmD3 and PIWIL1 peptides, PGM motif-containing SmB peptides, and histone H3R2 peptides (Table 1 and Fig. 1). A low salt concentration (50 mM NaCl) is used in the FP binding assay due to the weak binding affinities of these proteins to their ligands. At this salt concentration, the binding affinities are increased about four times compared to the data measured at 200 mM NaCl (Fig. S1), which will save the reagents and make the Kd measurement more reliable. […] Therefore, TDRD3 has a different binding selectivity than SND1, which we have previously established that the extended Tudor domain of SND1 preferentially binds symmetrically dimethylated arginine PIWIL1 peptides. Similar to SND1, the binding selectivity of TDRD3 among these three different arginine methylation marks is about 2 to 4-fold (Table 1).
as §2, §1

T1 sequence (Q9H7E2 520-633): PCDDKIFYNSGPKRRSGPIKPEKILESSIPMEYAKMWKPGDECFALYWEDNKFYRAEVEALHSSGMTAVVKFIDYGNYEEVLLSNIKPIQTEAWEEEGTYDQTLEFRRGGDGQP
T4 sequence (Q16637 80-170): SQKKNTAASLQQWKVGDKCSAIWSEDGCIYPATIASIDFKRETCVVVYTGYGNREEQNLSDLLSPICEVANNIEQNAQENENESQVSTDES

CN=C(NC)NCCC[C@H](NC(=O)[C@@H]1CCCN1C(=O)[C@H](C)NC(=O)[C@H](CCCCN)NC(=O)CNC(=O)CNC(=O)[C@@H](N)[C@@H](C)O)C(=O)N[C@@H](CCCCN)C(=O)N[C@@H](CCC(N)=O)C(=O)N[C@@H](CC(C)C)C(=O)N[C@@H](C)C(=O)N[C@H](C(=O)N[C@@H](CCCCN)C(=O)N[C@@H](C)C(=O)O)[C@@H](C)O [H3R17me2s]
pKd (TDRD3 (aa 520–633) [1]): < 3.30
Kd TDRD3 (aa 520–633) by ITC (TDRD3 (aa 520–633) [1]): No binding

CN=C(NC)NCCC[C@H](NC(=O)[C@H](CCSC)NC(=O)CNC(=O)[C@@H]1CCCN1C(=O)[C@@H]1CCCN1)C(=O)N1CCC[C@H]1C(=O)N1CCC[C@H]1C(=O)N1CCC[C@H]1C(=O)N1CCC[C@H]1C(=O)NCC(=O)O [PGM(SmB214SD)] (H-PPGM[Arg(Me2s)]PPPPG-OH; N-terminus and C-terminus assumed)
pKd (SND1 (aa 650–910) [2]): < 3.30
pKd (SPF30 (aa 65–150)): < 3.30
pKd (SMN (aa 80–170)): < 3.40

CN=C(NC)NCCC[C@H](NC(=O)CNC(=O)[C@@H]1CCCN1C(=O)[C@@H]1CCCN1C(=O)[C@@H](N)Cc1ccc(O)cc1)C(=O)NCC(=O)NCC(=O)N1CCC[C@H]1C(=O)N1CCC[C@H]1C(=O)N1CCC[C@H]1C(=O)O [PGM(SmB165SD)] (H-YPPG[Arg(Me2s)]GGPPP-OH; N-terminus and C-terminus assumed)
pKd (SND1 (aa 650–910) [2]): < 3.30
pKd (SPF30 (aa 65–150)): < 3.30
pKd (SMN (aa 80–170)): < 3.52

CN=C(NC)NCCC[C@H](NC(=O)[C@H](CCSC)NC(=O)CNC(=O)[C@@H]1CCCN1C(=O)[C@@H]1CCCN1)C(=O)NCC(=O)N1CCC[C@H]1C(=O)N1CCC[C@H]1C(=O)N1CCC[C@H]1C(=O)O [PGM(SmB221SD)] (H-PPGM[Arg(Me2s)]GPPP-OH; N-terminus and C-terminus assumed)
pKd (SND1 (aa 650–910) [2]): < 3.30
pKd (SPF30 (aa 65–150)): < 3.30
pKd (SMN (aa 80–170)): < 3.30

ARTK (me)1/2/3 QTARKST [Histone H3K4me1/2/3, histone H3 peptides mono-, di- or trimethylated at K4, reported in one line]
pKd (SPF30 (aa 65–150)): < 3.30
pKd (SMN (aa 80–170)): < 3.30
pKd (SND1 (aa 650–910) [3]): < 3.30

CN=C(NC)NCCC[C@H](NC(=O)CNC(=O)[C@@H](N)[C@@H](C)O)C(=O)N[C@@H](C)C(=O)N[C@@H](CCCNC(=N)N)C(=O)N[C@@H](C)C(=O)N[C@@H](CCCNC(=N)N)C(=O)N[C@@H](C)C(=O)N[C@@H](CCCNC(=N)N)C(=O)NCC(=O)N[C@@H](CCCNC(=N)N)C(=O)N[C@@H](C)C(=O)N[C@@H](CCCNC(=N)N)C(=O)NCC(=O)N[C@@H](CCC(N)=O)C(=O)N[C@@H](CCC(=O)O)C(=O)O [PIWIL1-R4me2s] (H-TG[Arg(Me2s)]ARARARGRARGQE-OH)
pKd (TDRD3 (aa 520–633) [4]): < 3.52
pKd (SPF30 (aa 65–150)): < 3.70

C[C@H](NC(=O)[C@H](CCCNC(=N)N)NC(=O)CNC(=O)[C@H](CCCNC(=N)N)NC(=O)[C@H](C)NC(=O)[C@H](CCCNC(=N)N)NC(=O)[C@H](C)NC(=O)[C@H](CCCNC(=N)N)NC(=O)[C@H](C)NC(=O)[C@H](CCCNC(=N)N(C)C)NC(=O)CNC(=O)[C@@H](N)[C@@H](C)O)C(=O)N[C@@H](CCCNC(=N)N)C(=O)NCC(=O)N[C@@H](CCC(N)=O)C(=O)N[C@@H](CCC(=O)O)C(=O)O [PIWIL1-R4me2a] (H-TG[Arg(Me2a)]ARARARGRARGQE-OH)
pKd (TDRD3 (aa 520–633) [4]): < 3.82
pKd (SPF30 (aa 65–150)): < 3.40

CC(C)C[C@H](NC(=O)[C@H](CCC(N)=O)NC(=O)[C@H](CCCCN)NC(=O)[C@H](CCCNC(=N)N(C)C)NC(=O)[C@@H]1CCCN1C(=O)[C@H](C)NC(=O)[C@H](CCCCN)NC(=O)CNC(=O)CNC(=O)[C@@H](N)[C@@H](C)O)C(=O)N[C@@H](C)C(=O)N[C@H](C(=O)N[C@@H](CCCCN)C(=O)N[C@@H](C)C(=O)O)[C@@H](C)O [H3R17me2a]
pKd (TDRD3 (aa 520–633) [1]): < 3.00

ARTKQTARK(me)1/2/3STGGKA [Histone H3K9me1/2/3, histone H3 peptides mono-, di- or trimethylated at K9, reported in one line]
pKd (SPF30 (aa 65–150)): < 3.30
pKd (SMN (aa 80–170)): < 3.30
pKd (SND1 (aa 650–910) [3]): < 3.30

C[C@H](NC(=O)[C@H](CCCNC(=N)N)NC(=O)[C@H](C)NC(=O)[C@H](CCCNC(=N)N)NC(=O)[C@H](C)NC(=O)[C@H](CCCNC(=N)N(C)C)NC(=O)CNC(=O)[C@@H](N)[C@@H](C)O)C(=O)O [PIWIL1_R4me2a peptide (TGRme2aARARA)] (H-TG[Arg(Me2a)]ARARA-OH; N-terminus and C-terminus assumed)
pKd (TDRD3 (aa 520–633) [1]): < 3.30

CNC(=N)NCCC[C@H](NC(=O)CNC(=O)[C@@H](N)[C@@H](C)O)C(=O)N[C@@H](C)C(=O)N[C@@H](CCCNC(=N)N)C(=O)N[C@@H](C)C(=O)N[C@@H](CCCNC(=N)N)C(=O)N[C@@H](C)C(=O)N[C@@H](CCCNC(=N)N)C(=O)NCC(=O)N[C@@H](CCCNC(=N)N)C(=O)N[C@@H](C)C(=O)N[C@@H](CCCNC(=N)N)C(=O)NCC(=O)N[C@@H](CCC(N)=O)C(=O)N[C@@H](CCC(=O)O)C(=O)O [PIWIL1-R4me1] (H-TG[Arg(Me)]ARARARGRARGQE-OH; N-terminus and C-terminus assumed)
pKd (TDRD3 (aa 520–633) [4]): < 3.30
pKd (SPF30 (aa 65–150)): < 3.30
pKd (SMN (aa 80–170)): < 3.82
binding affinity to SMN, times weaker than for PIWIL1_R4me2s (SMN (aa 80–170); ratio of FP Kd values relative to PIWIL1_R4me2s (Kd 34 µM)): over 4 times

CN=C(NC)NCCC[C@H](NC(=O)CNC(=O)[C@H](CCCNC(=N)N)NC(=O)CNC(=O)CN)C(=O)NCC(=O)N[C@@H](CCCNC(=N)N)C(=O)NCC(=O)O [SmD3RSDMA] (H-GGRG[Arg(Me2s)]GRG-OH)
pKd (TDRD3 (aa 520–633) [4]): < 3.40
pKd (SPF30 (aa 65–150)): < 3.30

From article PMC3281842, “Crystal Structure of TDRD3 and Methyl-Arginine Binding Characterization of TDRD3, SMN and SPF30” (PLoS ONE, 2012)
